As usually defined, the EC50 is the concentration giving half of the maximal effect.

Molecules are shown by their SMILES. Changes are numbered by the printed parent chain.

The text below walks through data of publication PMC2934701 (The Journal of Biological Chemistry, 2010).

Test [1] addresses T1, hTAS2R16 (ssr3-hTAS2R16) (Homo sapiens, UniProt Q9NYV7, E86D).
T1 sequence (Q9NYV7 1-291 E86D): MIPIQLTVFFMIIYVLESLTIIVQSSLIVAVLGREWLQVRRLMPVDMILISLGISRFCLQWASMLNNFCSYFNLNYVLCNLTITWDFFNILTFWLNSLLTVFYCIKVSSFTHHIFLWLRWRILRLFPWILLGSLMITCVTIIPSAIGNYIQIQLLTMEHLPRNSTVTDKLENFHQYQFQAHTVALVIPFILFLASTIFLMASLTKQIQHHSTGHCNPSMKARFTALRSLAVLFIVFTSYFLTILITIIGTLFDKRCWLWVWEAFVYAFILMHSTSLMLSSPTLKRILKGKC
As to the kind of experiment: Fluo-4 calcium assay, HEK293T + Galpha16gust44. It is filed as cell-based.

Test [2] has as its target T2, hTAS2R16 (ssr3-hTAS2R16) (Homo sapiens, UniProt Q9NYV7).
T2 sequence (Q9NYV7 1-291): T1 sequence (Q9NYV7 1-291 E86D) with D86E
Kind of test: Fluo-4 calcium assay, HEK293T + Galpha16gust44. It is filed as cell-based.

`OC[C@H]1O[C@@H](Oc2ccc(O)cc2)[C@H](O)[C@@H](O)[C@@H]1O` [arbutin]: the values for the EC50 at hTAS2R16 (ssr3-hTAS2R16) [1] and on hTAS2R16 (ssr3-hTAS2R16) [2] were 10.6 mM and 1.34 mM, respectively.
